These are literature values, as cited in patent US20090123919A1, “Diagnosing Pathological Conditions Using Interallelic Epigenetic Variations” (Allelis Diagnostics Ltd., priority 2005, published 2009).

In the data set the test system is aneuploid genotypes. The following applies: in the presence of 5-azacytidine, an inhibitor of DNA methylation.

Turning to `Nc1ncn([C@@H]2O[C@H](CO)[C@@H](O)[C@H]2O)c(=O)n1` [5-azacytidine], the “loss of the inherent temporal order of allelic replication” value was “can be reversed”.
